Experimental data reported in US20260028343A1, “Substituted Imidazopyrazine Compounds as Ligand Directed Degraders of IRAK3” (Celgene Corporation, priority 2022, published 2026).

Biological target: T1, IRAK3-ePL (Homo sapiens, UniProt Q9Y616)
T1 construct: expressed in transfected cells; host or cells: 293T CRBN OE / GSPT1 G575N KI cells, lentiviral transduction, puromycin selection
Assay: IRAK3-ePL Overexpressing Degradation Assay
Assay type: cell-based
Details: IRAK3-ePL Lenti-X 293T CRBN/GSPT1 G575N cells, overnight incubation; for Dmax: HEK-293T, top dose 10 μM, maximum percentage loss of target protein; for DC50: read-out: IRAK3 ePL degradation EC50
Protocol: Stable cell lines were generated by the following protocol. 3×10^5 Lenti-X 293T cells (Clonetech) were plated in 0.8 mL of media in a 12-well plate and incubated overnight at 37° C./5% CO2. Packaging plasmid (0.4 μg, pMD), envelope plasmid (0.4 μg, pSP), and lentiviral transfer IRAK3-ePL plasmid (0.8 μg, IRAK3 sequence NM_007199.3) were mixed in 0.1 mL of Opti-MEM and incubated for 5 min. Simultaneously, 2.4 μL of Lipofectamine 2000 (Invitrogen) was added to 0.1 mL of Opti-MEM (Gibco) and incubated for 5 min. The plasmid DNA and lipofectamine were combined and the mixture was allowed to incubate for 20 min.DNA:Lipofectamine Opti-MEM mixtures were then added to previously plated cells dropwise and the cells were incubated for ˜16 h at 37° C./5% CO2. Following incubation, the media was removed and 1.2 mL of fresh media was added per well. Lenti-X 293T cells were incubated for ˜30 h at 37° C./5% CO2. 0.5×10^6 293T^CRBN OE/GSPT1 G575N KI cells were plated in 0.5 mL of media/well of a 12-well plate and incubated for ˜16 h at 37° C./5% CO2. Following incubation, media was removed from the Lenti-X 293T wells and passed through a […]. Part of the viral supernatant was used to transduce cells and the rest was stored at −80° C. Viruses were then added individually (0.5 mL virus) to each well of the 293T^CRBN OE/GSPT1 G575N KI cells, followed by addition of polybrene (10 mg/mL Millipore) to each well at a final concentration of 5.0 μg/mL. Cells were incubated for ˜24 h at 37° C./5% CO2. After aspirating media off plates, cells were washed with DPBS, trypsinized and plated in a 10 cm dish in 15 mL of media and 1 μg/mL puromycin. Following incubation of cells for ˜72 h at 37° C./5% CO2, media was aspirated off plates, and cells were washed with DPBS and trypsinized. The cells were plated in a 15 cm dish in 40 mL of media with 1.0 μg/mL Puromycin (Gibco) and incubated for ˜72 h at 37° C./5% CO2. Following incubation, media was removed and cells were washed with DPBS and trypsinized. The majority of cells were resuspended in Invitrogen freezing media and stored away (˜6-8×10^6 cells/vial).
IRAK3-ePL cellular dose response curve degradation assays were performed by the following protocol. Compounds to be tested were dispensed into a white 384-well tissue-culture treated plate using an acoustic liquid handler. Dilutions were prepared based on a 25 μL assay volume in duplicate 10 point 3-fold serial dilutions starting with a 10 μM dose. Negative control wells were included, which only contain 0.2% DMSO to calculate 100% signal. Positive control wells containing 30 μM Ataluren (luciferase inhibitor) were included to calculate the background signal level. All wells were backfilled to a final DMSO concentration of 0.2% to ensure DMSO uniformity across wells. IRAK3-ePL expressing cells (IRAK3-ePL Lenti-X 293T^CRBN/GSPT1 G575N) were washed, trypsinized, counted, and resuspended in fresh DMEM (Gibco) to give a cell concentration of 200,000 cells/mL. 25 μL of cells (5,000 cells/well) were dispensed into the wells of the 384-well plate prespotted with compounds in the previous step and incubated overnight at 37° C./5% CO2. Following incubation, the 384-well plate was taken out of the incubator and left at room temperature for 30 min. InCELL hunter reagent was prepared according to manufacturer's instructions (EA reagent, lysis buffer, and substrate reagent in a 1:1:4 ratio, Cat #96-0002, DiscoverX), which was added to the 384-well plate 25 μL per well. Following the incubation of the plate for 1 h at room temperature, the luminescence signal was read using a ViewLux plate reader. Data was processed and analyzed in ActivityBase software. In short, the average luminescence values of the positive control wells were subtracted from the rest of the wells for background correction, and all luminescence values were normalized to the DMSO control wells. The average value of the DMSO control wells was set to equal 100% of the relative IRAK3-ePL protein levels. […]

| Structure (SMILES) | Dmax | DC50 |
| --- | --- | --- |
| Cc1cccc(-c2cnc(Nc3ccc(N4CCN(C(=O)COc5cccc6c5C(=O)N(C5CCC(=O)NC5=O)C6=O)CC4)cc3)c3nccn23)c1 (stereo not drawn) [Compound 1, 2-(2,6-Dioxopiperidin-3-yl)-4-(2-oxo-2-(4-(4-((5-(m-tolyl)imidazo[1,2-a]pyrazin-8-yl)amino)phenyl)piperazin-1-yl)ethoxy)isoindoline-1,3-dione] | 11% | – |
| Cc1cccc(-c2cnc(Nc3ccc(N4CCN(C(=O)CCCNC(=O)COc5cccc6c5C(=O)N(C5CCC(=O)NC5=O)C6=O)CC4)cc3)c3nccn23)c1 (stereo not drawn) [Compound 2, 2-((2-(2,6-Dioxopiperidin-3-yl)-1,3-dioxoisoindolin-4-yl)oxy)-N-(4-oxo-4-(4-(4-((5-(m-tolyl)imidazo[1,2-a]pyrazin-8-yl)amino)phenyl)piperazin-1-yl)butyl)acetamide] | 10% | – |
| Cc1cccc(-c2cnc(Nc3ccc(N4CCN(C(=O)COc5ccc6c(c5)C(=O)N(C5CCC(=O)NC5=O)C6=O)CC4)cc3)c3nccn23)c1 (stereo not drawn) [Compound 4, 2-(2,6-Dioxopiperidin-3-yl)-5-(2-oxo-2-(4-(4-((5-(m-tolyl)imidazo[1,2-a]pyrazin-8-yl)amino)phenyl)piperazin-1-yl)ethoxy)isoindoline-1,3-dione] | 22% | – |
| Cc1cccc(-c2cnc(Nc3ccc(C4CCN(CCNC(=O)COc5ccc6c(c5)C(=O)N(C5CCC(=O)NC5=O)C6=O)CC4)cc3)c3nccn23)c1 (stereo not drawn) [Compound 10, 2-((2-(2,6-Dioxopiperidin-3-yl)-1,3-dioxoisoindolin-5-yl)oxy)-N-(2-(4-(4-((5-(m-tolyl)imidazo[1,2-a]pyrazin-8-yl)amino)phenyl)piperidin-1-yl)ethyl)acetamide] | 17% | – |
| Cc1cccc(-c2cnc(Nc3cccc(N4CCN(CCNC(=O)COc5ccc6c(c5)C(=O)N(C5CCC(=O)NC5=O)C6=O)CC4)c3)c3nccn23)c1 (stereo not drawn) [Compound 11, 2-((2-(2,6-Dioxopiperidin-3-yl)-1,3-dioxoisoindolin-5-yl)oxy)-N-(2-(4-(3-((5-(m-tolyl)imidazo[1,2-a]pyrazin-8-yl)amino)phenyl)piperazin-1-yl)ethyl)acetamide] | 22% | – |
| Cc1cccc(-c2cnc(Nc3cnn(C4CCN(C5CCC6(CC5)CCN(C(=O)c5ccc7c(c5)CN(C5CCC(=O)NC5=O)C7=O)CC6)CC4)c3)c3nccn23)c1 (stereo not drawn) [Compound 12, 3-(1-Oxo-5-(9-(4-(4-((5-(m-tolyl)imidazo[1,2-a]pyrazin-8-yl)amino)-1H-pyrazol-1-yl)piperidin-1-yl)-3-azaspiro[5.5]undecane-3-carbonyl)isoindolin-2-yl)piperidine-2,6-dione] | 76% | 0.028 µM |

Continued, values first:

| Dmax | DC50 | Structure (SMILES) |
| --- | --- | --- |
| 14% | – | Cc1cccc(-c2cnc(Nc3ccc(N4CCN(C(=O)CCOCCNC(=O)COc5cccc6c5C(=O)N(C5CCC(=O)NC5=O)C6=O)CC4)cc3)c3nccn23)c1 (stereo not drawn) [Compound 3, 2-((2-(2,6-Dioxopiperidin-3-yl)-1,3-dioxoisoindolin-4-yl)oxy)-N-(2-(3-oxo-3-(4-(4-((5-(m-tolyl)imidazo[1,2-a]pyrazin-8-yl)amino)phenyl)piperazin-1-yl)propoxy)ethyl)acetamide] |
| 21% | – | Cc1cccc(-c2cnc(Nc3ccc(N4CCN(C(=O)CCCNC(=O)COc5ccc6c(c5)C(=O)N(C5CCC(=O)NC5=O)C6=O)CC4)cc3)c3nccn23)c1 (stereo not drawn) [Compound 5, 2-((2-(2,6-Dioxopiperidin-3-yl)-1,3-dioxoisoindolin-5-yl)oxy)-N-(4-oxo-4-(4-(4-((5-(m-tolyl)imidazo[1,2-a]pyrazin-8-yl)amino)phenyl)piperazin-1-yl)butyl)acetamide] |
| 39% | – | Cc1cccc(-c2cnc(Nc3ccc(N4CCN(C(=O)CCOCCNC(=O)COc5ccc6c(c5)C(=O)N(C5CCC(=O)NC5=O)C6=O)CC4)cc3)c3nccn23)c1 (stereo not drawn) [Compound 6, 2-((2-(2,6-Dioxopiperidin-3-yl)-1,3-dioxoisoindolin-5-yl)oxy)-N-(2-(3-oxo-3-(4-(4-((5-(m-tolyl)imidazo[1,2-a]pyrazin-8-yl)amino)phenyl)piperazin-1-yl)propoxy)ethyl)acetamide] |
| 51% | 1.1 µM | Cc1cccc(-c2cnc(Nc3ccc(N4CCN(CCNC(=O)COc5ccc6c(c5)C(=O)N(C5CCC(=O)NC5=O)C6=O)CC4)cc3)c3nccn23)c1 (stereo not drawn) [Compound 7, 2-((2-(2,6-Dioxopiperidin-3-yl)-1,3-dioxoisoindolin-5-yl)oxy)-N-(2-(4-(4-((5-(m-tolyl)imidazo[1,2-a]pyrazin-8-yl)amino)phenyl)piperazin-1-yl)ethyl)acetamide] |
| 78% | 0.017 µM | Cc1cccc(-c2cnc(Nc3cnn(C4CCN(CCNC(=O)COc5ccc6c(c5)C(=O)N(C5CCC(=O)NC5=O)C6=O)CC4)c3)c3nccn23)c1 (stereo not drawn) [Compound 8, 2-((2-(2,6-Dioxopiperidin-3-yl)-1,3-dioxoisoindolin-5-yl)oxy)-N-(2-(4-(4-((5-(m-tolyl)imidazo[1,2-a]pyrazin-8-yl)amino)-1H-pyrazol-1-yl)piperidin-1-yl)ethyl)acetamide] |
| 18% | – | Cc1cccc(-c2cnc(Nc3cccc(C4CCN(CCNC(=O)COc5ccc6c(c5)C(=O)N(C5CCC(=O)NC5=O)C6=O)CC4)c3)c3nccn23)c1 (stereo not drawn) [Compound 9, 2-((2-(2,6-Dioxopiperidin-3-yl)-1,3-dioxoisoindolin-5-yl)oxy)-N-(2-(4-(3-((5-(m-tolyl)imidazo[1,2-a]pyrazin-8-yl)amino)phenyl)piperidin-1-yl)ethyl)acetamide] |
